This is an account of results in PubChem BioAssay (NCI).

Where “and” joins values, the source holds several entries; their conditions need not be identical. Equal values may be shown once.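 All cell lines were grown in 96-well plates and treated with compound for 48 hours. GI50: concentration for 50% inhibition of growth. TGI: concentration producing complete growth inhibition.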

What all share (assay): inhibition of tumour cell growth, NCI panel, 48 h
Assay [1] deals with UO-31 renal.
The subject of assay [2] is HT29 colon.
Assay [3] concerns SF-268 CNS.
In assay [4] the test system is SF-539 CNS.
Assay [5] concerns IGROV1 ovarian.
Assay [6] has as its system NCI-H460 lung.
The test system of assay [7] is SNB-19 CNS.
Assay [8] concerns NCI-H23 lung.
The test system of assay [9] is CCRF-CEM leukemia.
The test system of assay [10] is RPMI-8226 leukemia.

For `CN1CCN(CCCCCOc2cc(O)c3c(=O)cc(-c4ccccc4)oc3c2)CC1`, the GI50 in assay [1] is 1.71 µM; in assay [2], 2.86 µM; in assay [3], 11.7 µM; in assay [4] it was 2.81 µM; in [5], 2.41 µM; in [6], 3.27 µM. In addition, the GI50 in [7] is 4.11 µM. Further, the TGI in assay [1] was 3.55 µM; in assay [2], 8.12 µM; in assay [3] it was above 100 µM; in assay [4], 7.87 µM; in [5], 5.64 µM; in assay [6], 11.3 µM. The compound further yielded a TGI in assay [7] of 22.3 µM.
Take `CCN1CCCCCCCCCC(=N/O)/C(=N\O)C1`: the TGI in [1], in assay [2], in [3], in assay [8], in assay [4] and in assay [5] was above 100 µM in each case. For the same compound, the TGI in assay [9], in assay [6] and in assay [7] was above 100 µM throughout.
Regarding `COC(=O)COc1ccccc1/C=C1/N=C(c2ccccc2)N(c2c(C)n(C)n(-c3ccccc3)c2=O)C1=O`, the GI50 in assay [1] was above 100 µM; in assay [2], above 100 µM; in assay [3], above 100 µM; in assay [8], above 100 µM; in [4], above 100 µM; in assay [5], 46.1 µM. The figures for the GI50 in [6], in assay [7] and in assay [10] were above 100 µM, above 100 µM and 28.9 µM, respectively. The TGI in [1], in [2], in assay [3], in [8], in assay [4] and in assay [5] was above 100 µM throughout. The TGI in assay [6], in assay [7] and in assay [10] was above 100 µM each time.
Regarding `O=C(CCl)N1CCN(c2ccccc2)CC1`, the TGI in [1] was 32 µM; in assay [2] it was 41.4 µM; in assay [3], 33 µM; in [8], 35.6 µM; in [5], 51.7 µM; in [9], above 100 µM. In addition, the results for the TGI in assay [6], in assay [7] and in [10] were 34.9 µM, above 100 µM and 85.5 µM, respectively.
Take `CCOC(=O)C1(C)C2=CC=C(O2)C(C)(C)C2=CC=C(O2)C(C)(C)C2=CC=C(O2)C(C)(C)C2=CC=C1O2`: the TGI in assay [2], in [3], in [8], in [4], in assay [5] and in [9] was above 100 µM each time. In addition, the TGI in assay [6] and in assay [7] was above 100 µM throughout.
As for `Cc1c(Br)c(Br)c2c3c1nc(N1CCNCC1)n3CCC2`, the GI50 in [1] was 1.54 µM; in assay [2] it was 1.51 µM; in assay [3], 2.12 µM; in assay [8], 2.01 µM; in [4], 1.64 µM; in assay [5], 1.41 µM. Besides, the GI50 in assay [6] was 1.7 µM; in assay [7] it was 1.56 µM. Besides, the TGI in assay [1] was 2.91 µM; in assay [2], 3.2 µM; in assay [3], 4.78 µM; in assay [8], 4.22 µM; in assay [4] it was 3.09 µM; in assay [5] it was 3.12 µM. Further, the TGI in assay [6] was 3.22 µM; in assay [7], 3.01 µM.
As to `CCN(CC)CCN1C(=O)c2c(c3c4cccc(Cl)c4n(C4OC(CO)C(OC)C(O)C4O)c3c3[nH]c4c(Cl)cccc4c23)C1=O` (stereo unspecified), the GI50 in [2] is below 0.0001 µM; in assay [3], below 0.0001 µM; in assay [8] it was 0.000398 µM and < 0.0329 µM and < 0.01 µM; in assay [9], below 0.0001 µM; in assay [6], below 0.0001 µM; in [10], 0.000139 µM and < 0.0268 µM. In assay [10], this compound registered a TGI of 0.00306 µM.
For `O=c1[nH]c(-c2ccccc2)nc2cc([N+](=O)[O-])c(/C(Cl)=C/c3ccccc3)cc12`, the TGI in [1], in assay [3], in assay [8], in [4], in assay [5] and in assay [7] was above 100 µM throughout. The same compound showed a TGI in assay [10] of 88.7 µM.
`CC1CN1c1c(C(=O)/C=C/c2ccc(F)cc2)c(-c2ccccc2)nn(C)c1=O` (stereo unspecified): the TGI in assay [1] was determined as 25.5 µM; in [2] it was 30.9 µM; in assay [3], 30.4 µM; in [8] it was 27.1 µM; in [5], 40.2 µM; in assay [9], 48.8 µM. Moreover, the TGI in assay [6] was 36.3 µM; in assay [7] it was 30.3 µM; in assay [10], 32.2 µM.
As to `N#C/C(=C\c1ccc(O)c(O)c1)C(=O)NCc1cccc(C(F)(F)F)c1`, the GI50 was 11.8 µM in assay [1]; 22 µM in assay [2]; 13.7 µM in assay [3]; 12.2 µM in assay [8]; 3.51 µM in assay [4]; 6.14 µM in assay [6]. For the same compound, the figures for the GI50 in assay [7] and in assay [10] were 19.4 µM and 10.2 µM, respectively. Also, the TGI in [1] is 73.9 µM; in assay [2] it was 56.3 µM; in assay [3], 42.1 µM; in assay [8], 31.5 µM; in assay [4], 17 µM; in assay [6], 31 µM. Besides, the TGI in assay [7] and in assay [10] was above 100 µM each time.
For the compound `c1ccc(C2=Nc3ccccc3N3CNN=C23)cc1`, the GI50 in assay [1] is above 100 µM; in assay [2], 52.2 µM; in [3], above 100 µM; in assay [8] it was above 100 µM; in assay [5] it was above 100 µM; in assay [9], above 100 µM. Moreover, the results for the GI50 in assay [6], in assay [7] and in [10] were above 100 µM, above 100 µM and 31.6 µM, respectively. In addition, the TGI in assay [1], in assay [2], in assay [3], in assay [8], in assay [5] and in assay [9] was above 100 µM in each case. Moreover, the TGI in assay [6], in [7] and in assay [10] was above 100 µM in each case.
